Assay results: patent publication US20240382600A1, “BIFUNCTIONAL DEGRADERS COMPRISING A TEAD BINDER” (Novartis AG, priority 2021, published 2024)

Key:
[1] = molecular target: TEAD1-GFP in HEK293A cells (Homo sapiens (Human), UniProt P28347); test: TEAD1 protein abundance flow cytometry assay in HEK293A; type: cell-based; settings: HEK293A TEAD1-GFP-CHYSEL-mCherry sensor cells, 24 h, GFP signal by flow cytometry
Procedure: Degradation of TEAD1 was measured in HEK293A cells (Invitrogen R70507) expressing TEAD1-GFP and mCherry from a stably integrated bicistronic TEAD1-GFP-CHYSEL-mCherry construct. Reduction of the GFP signal measured by flow cytometry served as readout for TEAD1 degradation after degrader treatment.
Stable HEK293A sensor cells were maintained in complete growth medium (DMEM high Glucose+10% FCS+1% L-Glutamine+1% NEAA+1% NaPyr.+4 μg/mL blasticidin) with passaging performed twice per week. On Day 0, stable HEK293A sensor cells were seeded at 5,000 cells/well in a 96-well microtiter plate in 100 μL complete medium. On Day 1, cells were treated in duplicate with 10-point 1:3 dilution series of compound using the HP D300 Digital Dispenser (Tecan). DMSO concentrations were normalized across the plate to 0.1%. On Day 2, after 24 h of incubation at 37° C., treatment media was discarded, cells rinsed with 100 μL/well PBS and then detached using 40 μL trypsin/well for 5 min. Trypsin was neutralized with 100 μL/well PBS+20% FCS).
Flow cytometry was performed on the samples using the CytoFlex S (Beckman Coulter). Cell identification was then performed using forward (FSC) vs. side scatter (SSC) plots. Single cell discrimination was performed using SSC-Width (SSC-W) vs. SSC-Height (SSCH) plots. Median GFP values for 2,500 single cells were used to determine TEAD1 levels. Median GFP values from HEK293A were used as a background signal and thus defining 0% TEAD1 signal. Median GFP values from DMSO treated HEK293A TEAD1-GFP CHYSEL-mCherry were used to define 100%
TEAD1 signal for subsequent DC50 curves (concentration at 50% TAED1 degradation). GFP and RFP were read in the channels called FITC and PE, respectively. Concentration response curves plotting relative reduction of the GFP signal (measured by flow cytometry) versus 10 compound concentrations (starting concentration 10 μM, 3 fold dilution steps) of the compounds allowed generation of DC50 values.

[2] = system: MKN-45/Ubc-luc cells (unspecific inhibition of luciferase expression or activity); test: Reporter gene assay specificity control (Ubc-Luc), MKN-45; type: cell-based; settings: Homo sapiens; MKN-45/Ubc-luc specificity control, 24 hrs
Procedure, shortened: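 MKN-45 cells stably carrying a ubiquitin C promoter–firefly luciferase construct, treated the day after seeding with eleven 2-fold compound dilutions (0.1% DMSO final) for 24 hrs at 37° C. Luminescence read 5 min after Steady Glo addition; cell-free background subtracted, as a control for nonspecific luciferase inhibition.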

[3] = system: MKN-45/Ubc-luc cells; test: Proliferation assay (resazurin/AlamarBlue), MKN-45; type: cell-based; settings: Homo sapiens; MKN-45, 72 hours
Procedure, shortened: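 MKN-45 cells carrying constitutive Ubc-driven luciferase reporter, treated the day after seeding with eleven 2-fold dilutions (0.1% DMSO) for 72 h at 37 °C. Viability by resazurin, referenced to day-0 plate; GI50 from % growth (100 none, 0 stasis, −100 kill) and residual viability at top concentration.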

[4] = system: NCI-H2052 Tet-On shYAP_2371 pLenti6 MCAT_Luc cells; test: Proliferation assay (resazurin/AlamarBlue), NCI-H2052; type: cell-based; settings: Homo sapiens; NCI-H2052, 72 hours
[5] = system: YAP-dependent transcription in SF268-MCAT_Luc_dox-i-shYAPLevy (Clone 13) cells; test: YAP reporter gene activity assay (MCAT-Luc), SF268; type: cell-based; settings: Homo sapiens, SF-268; SF268 MCAT_Luc, 24 hrs
[6] = system: SF268-MCAT_Luc_dox-i-shYAPLevy (Clone 13) cells; test: Proliferation assay (resazurin/AlamarBlue), SF268; type: cell-based; settings: Homo sapiens, SF-268; SF268, 72 hours
[7] = system: YAP-dependent transcription in NCI-H2052 Tet-On shYAP_2371 pLenti6 MCAT_Luc cells; test: YAP reporter gene activity assay (MCAT-Luc), NCI-H2052; type: cell-based; settings: Homo sapiens, 24 hrs
[8] = molecular target: Avi-humanTEAD4^217-434 / Cy5 labeled humanYAP^60-100 (Homo sapiens (Human), UniProt Q15561); test: In-vitro biochemical TR-FRET assay (TEAD4/YAP); type: binding; settings: 1 h at room temperature
Avi-humanTEAD4^217-434 / Cy5 labeled humanYAP^60-100, sequence (Q15561 217-434): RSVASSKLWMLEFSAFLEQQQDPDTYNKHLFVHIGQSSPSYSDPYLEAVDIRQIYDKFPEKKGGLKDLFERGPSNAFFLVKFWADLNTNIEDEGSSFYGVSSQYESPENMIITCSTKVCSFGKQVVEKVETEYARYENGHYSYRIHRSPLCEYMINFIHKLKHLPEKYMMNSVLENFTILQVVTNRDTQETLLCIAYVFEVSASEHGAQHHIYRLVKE

TEAD1-GFP in HEK293A cells, sequence (P28347 whole entry): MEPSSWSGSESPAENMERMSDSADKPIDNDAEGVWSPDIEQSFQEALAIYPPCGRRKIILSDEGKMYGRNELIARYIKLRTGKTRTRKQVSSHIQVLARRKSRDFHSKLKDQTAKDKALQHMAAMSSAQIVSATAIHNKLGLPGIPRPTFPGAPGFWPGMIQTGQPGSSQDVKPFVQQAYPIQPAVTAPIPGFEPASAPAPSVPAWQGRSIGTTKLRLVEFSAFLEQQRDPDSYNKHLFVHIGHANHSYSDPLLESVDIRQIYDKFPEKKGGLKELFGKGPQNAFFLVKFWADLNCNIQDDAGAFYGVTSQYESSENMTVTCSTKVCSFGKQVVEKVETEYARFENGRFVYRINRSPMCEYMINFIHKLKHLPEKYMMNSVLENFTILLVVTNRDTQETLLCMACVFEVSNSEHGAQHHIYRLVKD

Structure (SMILES)	DC50 [1] [µM]	IC50 [2] [µM]	GI50 [3] [µM]	GI50 [4] [µM]	IC50 [5] [µM]	IC50 [7] [µM]	IC50 [8] [µM]	GI50 [6] [µM]
COc1ccc(C(N)=O)c(-c2c(Cl)c(F)cc3c2[C@H](C)[C@@](CN[C@H]2CC[C@H](C(=O)N[C@H]4CC[C@H](NC(=O)COc5cc(-c6scnc6C)ccc5CNC(=O)[C@@H]5C[C@@H](O)CN5C(=O)[C@@H](NC(=O)C5(F)CC5)C(C)(C)C)CC4)CC2)(c2ccccc2)O3)c1F (atropisomer, axis not shown) [Example 39, (2S,4R)-N-(2-(2-(((1S,4S)-4-((1S,4R)-4-((((2S,3S,4S)-4-(6-carbamoyl-2-fluoro-3-methoxyphenyl)-5-chloro-6-fluoro-3-methyl-2-phenyl-2,3-dihydrobenzofuran-2-yl)methyl)amino)cyclohexane-1-carboxamido)cyclohexyl)amino)-2-oxoethoxy)-4-(4-methylthiazol-5-yl)benzyl)-1-((S)-2-(1-fluorocyclopropane-1-carboxamido)-3,3-dimethylbutanoyl)-4-hydroxypyrrolidine-2-carboxamide]	0.009	> 2	> 2	0.17	0.0018	0.056	0.003	0.063
COc1ccc(C(N)=O)c(-c2c(Cl)c(F)cc3c2[C@H](C)[C@@](CN[C@H]2CC[C@H](C(=O)N4CCC(C5CCN(C(=O)COc6ccc(C)c(N7CCC(=O)NC7=O)c6)CC5)CC4)CC2)(c2ccccc2)O3)c1F (atropisomer, axis not shown) [Example 19, 2-((2S,3S,4S)-5-chloro-2-((((1r,4S)-4-(1′-(2-(3-(2,4-dioxotetrahydropyrimidin-1(2H)-yl)-4-methylphenoxy)acetyl)-[4,4′-bipiperidine]-1-carbonyl)cyclohexyl)amino)methyl)-6-fluoro-3-methyl-2-phenyl-2,3-dihydrobenzofuran-4-yl)-3-fluoro-4-methoxybenzamide]	0.0005	> 2	> 2	0.012	0.00041	0.0046	0.0021	0.029
COc1ccc(C(N)=O)c(-c2c(Cl)c(F)cc3c2[C@H](C)[C@@](CN[C@H]2CC[C@H](C(=O)N4CCC(CC5CCN(C(=O)Cn6cccc(CN7CCC(=O)NC7=O)c6=O)CC5)CC4)CC2)(c2ccccc2)O3)c1F (atropisomer, axis not shown) [Example 16, 2-((2S,3S,4S)-5-chloro-2-((((1r,4S)-4-(4-((1-(2-(3-((2,4-dioxotetrahydropyrimidin-1(2H)-yl)methyl)-2-oxopyridin-1(2H)-yl)acetyl)piperidin-4-yl)methyl)piperidine-1-carbonyl)cyclohexyl)amino)methyl)-6-fluoro-3-methyl-2-phenyl-2,3-dihydrobenzofuran-4-yl)-3-fluoro-4-methoxybenzamide]	0.006	> 2	> 2	0.052	0.0012	0.014	0.0013	0.064
COc1ccc(C(=O)N2CCC(CC3CCN(C(=O)[C@H]4CC[C@H](NC[C@]5(c6ccccc6)Oc6cc(F)c(Cl)c(-c7c(C(N)=O)ccc(OC)c7F)c6[C@@H]5C)CC4)CC3)CC2)cc1N1CCC(=O)NC1=O (atropisomer, axis not shown) [Example 1, 2-((2S,3S,4S)-5-chloro-2-((((1r,4S)-4-(4-((1-(3-(2,4-dioxotetrahydropyrimidin-1(2H)-yl)-4-methoxybenzoyl)piperidin-4-yl)methyl)piperidine-1-carbonyl)cyclohexyl)amino)methyl)-6-fluoro-3-methyl-2-phenyl-2,3-dihydrobenzofuran-4-yl)-3-fluoro-4-methoxybenzamide]	0.0006	> 20	11	0.015	0.0003	0.0036	0.0019	0.014

More lines, main results first:

DC50 [1] [µM]	IC50 [2] [µM]	GI50 [3] [µM]	GI50 [4] [µM]	IC50 [5] [µM]	IC50 [7] [µM]	IC50 [8] [µM]	Structure (SMILES)	GI50 [6] [µM]
0.003	> 20	> 20	0.077	0.0004	0.029	< 0.001	COc1ccc(C(=O)N2CCC(CC3CCN(CCNC(=O)[C@H]4CC[C@H](NC[C@]5(c6ccccc6)Oc6cc(F)c(Cl)c(-c7c(C(N)=O)ccc(OC)c7F)c6[C@@H]5C)CC4)CC3)CC2)cc1N1CCC(=O)NC1=O (atropisomer, axis not shown) [Example 7, 2-((2S,3S,4S)-5-chloro-2-((((1r,4S)-4-((2-(4-((1-(3-(2,4-dioxotetrahydropyrimidin-1(2H)-yl)-4-methoxybenzoyl)piperidin-4-yl)methyl)piperidin-1-yl)ethyl)carbamoyl)cyclohexyl)amino)methyl)-6-fluoro-3-methyl-2-phenyl-2,3-dihydrobenzofuran-4-yl)-3-fluoro-4-methoxybenzamide]	0.026
0.035	> 20	> 20	0.36	0.0025	0.16	< 0.001	COc1ccc(C(=O)N2CCC3(CCN(CCNC(=O)[C@H]4CC[C@H](NC[C@]5(c6ccccc6)Oc6cc(F)c(Cl)c(-c7c(C(N)=O)ccc(OC)c7F)c6[C@@H]5C)CC4)CC3)CC2)cc1N1CCC(=O)NC1=O (atropisomer, axis not shown) [Example 5, 2-((2S,3S,4S)-5-chloro-2-((((1r,4S)-4-((2-(9-(3-(2,4-dioxotetrahydropyrimidin-1(2H)-yl)-4-methoxybenzoyl)-3,9-diazaspiro[5.5]undecan-3-yl)ethyl)carbamoyl)cyclohexyl)amino)methyl)-6-fluoro-3-methyl-2-phenyl-2,3-dihydrobenzofuran-4-yl)-3-fluoro-4-methoxybenzamide]	0.089
0.004	> 2	> 2	0.062	0.00085	0.015	0.001	COc1ccc(C(=O)N2CCC(CN3CCN(C(=O)[C@H]4CC[C@H](NC[C@]5(c6ccccc6)Oc6cc(F)c(Cl)c(-c7c(C(N)=O)ccc(OC)c7F)c6[C@@H]5C)CC4)CC3)CC2)cc1N1CCC(=O)NC1=O (atropisomer, axis not shown) [Example 17, 2-((2S,3S,4S)-5-chloro-2-((((1r,4S)-4-(4-((1-(3-(2,4-dioxotetrahydropyrimidin-1(2H)-yl)-4-methoxybenzoyl)piperidin-4-yl)methyl)piperazine-1-carbonyl)cyclohexyl)amino)methyl)-6-fluoro-3-methyl-2-phenyl-2,3-dihydrobenzofuran-4-yl)-3-fluoro-4-methoxybenzamide]	0.049
0.006	> 20	> 20	0.32	0.0016	0.098	< 0.001	COc1ccc(C(=O)N2CCN(CC3CCN(CCNC(=O)[C@H]4CC[C@H](NC[C@]5(c6ccccc6)Oc6cc(F)c(Cl)c(-c7c(C(N)=O)ccc(OC)c7F)c6[C@@H]5C)CC4)CC3)CC2)cc1N1CCC(=O)NC1=O (atropisomer, axis not shown) [Example 3, 2-((2S,3S,4S)-5-chloro-2-((((1r,4S)-4-((2-(4-((4-(3-(2,4-dioxotetrahydropyrimidin-1(2H)-yl)-4-methoxybenzoyl)piperazin-1-yl)methyl)piperidin-1-yl)ethyl)carbamoyl)cyclohexyl)amino)methyl)-6-fluoro-3-methyl-2-phenyl-2,3-dihydrobenzofuran-4-yl)-3-fluoro-4-methoxybenzamide]	0.054
